Literature values in patent US20210330614A1, “PROCESS FOR MANUFACTURING PHENYLEPHRINE RESINATE PARTICLES; PHENYLEPHRINE RESINATE PARTICLES; AND USE OF PHENYLEPHRINE RESINATE PARTICLES IN PHARMACEUTICAL FORMULATIONS” (Johnson & Johnson Consumer Inc., priority 2014, published 2021).

How the values were obtained:
[1] = 30 mg dose administered orally over eight hours
[2] = therapeutic dose

Row | metabolized to m-hydroxy-phenylglycol-sulfate, % of the dose [1] | metabolized to m-hydroxymandelic acid, % of the dose [1] | metabolized to phenylephrine-glucuronide, % of the dose [1] | metabolized to phenylephrine-sulfate, % of the dose [1] | excreted unchanged in the urine, % of dose [2] | Structure (SMILES)
1 | 6% | 30% | 12% | 47% |  | CNC[C@H](O)c1cccc(O)c1.Cl [phenylephrine, (R)-1-(3-hydroxyphenyl)-2-methylaminoethanol]
2 |  |  |  |  | Less than 9% | CC(=O)Nc1ccc(O)cc1 [acetaminophen, Acetaminophen]
